Results reported in patent publication US8278309B2, “Synthetic mimetics of host defense and uses thereof” (priority 2008, dated 2012).
In brackets after ≈: the same amount, converted by molar mass. Where two headings read alike, the source gives them in different places. Blank lines part the entries; values can stand above or below the compound they belong to.

Legend:
MSSA ATCC 29213 = assay: Serial passage resistance, MSSA; type: cell-based, S. aureus; conditions: serial passage at 0.5×MIC
Procedure: (§1) Frozen bacterial stocks (20 μL) of S. aureus ATCC29213 or methicillin-resistant S. aureus (MRSA ATCC 33591) were inoculated into 3 mL cation-adjusted Mueller-Hinton medium and incubated at 37° C. on a shaker platform (250 rpm) overnight. The suspension was diluted to approximately 5×10^5 cfu/mL and inoculated into a polypropylene (Costar) 96-well round bottom plate (90 μL volumes). Compound stock solutions of Compound A and norfloxacin (Sigma Aldrich, St. Louis, Mo.; Catalogue# N9890) were prepared in DMSO and serial two-fold dilutions of compound were made in 0.01% acetic acid, 0.2% bovine serum albumin directly in the wells of the polypropylene plate at 10 μL/well. Final concentrations of Compound A were 50, 25, 12.5, 6.25, 3.13, 1.56, 0.78, 0.39, 0.19, 0.098, 0.049, and 0.024 μg/mL. Final concentration ranges of norfloxacin were 100, 50, 25, 12.5, 6.25, 3.13, 1.56, 0.78, 0.39, 0.19, 0.098, and 0.049 μg/mL. […] All samples were performed in triplicate. Following a 24 hour incubation at 37° C., cell growth was assessed by observing the presence of “acceptable growth”, defined by CLSI as a ≧2 mm button or definite turbidity. The MIC wells were defined as the lowest concentration where acceptable growth was not observed. For serial passage, 50 μL aliquots were taken from 2 of 3 replicate wells at 0.5×MIC and combined into 900 μL of fresh cation-adjusted Mueller-Hinton medium. The OD600 was measured and the cell suspensions were inoculated into polypropylene 96-well round bottom plates (90 μL volumes) at approximately 5×10^5 cfu/mL. Ten μL of compound stock solutions were added previously to the wells to achieve the concentration ranges for each compound described above. All samples were performed in triplicate. The plates were incubated for 24 hours at 37° C. This process was repeated for a total of 17 passages and MIC values were recorded at each passage.

MRSA ATCC 33591 = assay: Serial passage resistance, MRSA; type: cell-based, S. aureus; conditions: serial passage at 0.5×MIC
Procedure: as §1

Klebsiella pneumoniae = assay: MIC broth microdilution, Gram-negative clinical isolates; type: cell-based
Procedure: (§2) Compound A was evaluated in vitro in accordance with defined CLSI documents specific to the organisms (aerobic, anaerobic or yeast) tested in this study. Ampicillin, ceftazidime, cefuroxime, ciprofloxacin, linezolid, and vancomycin were tested alongside as comparator agents for aerobic bacteria; clindamycin and metronidazole were tested as comparators for anaerobes; fluconazole was tested as a comparator for yeast isolates. Stock solutions of Compound A were prepared in dimethyl sulfoxide (DMSO). Ampicillin, ceftazidime, cefuroxime, ciprofloxacin, linezolid, vancomycin, metronidazole, clindamycin, and fluconazole were prepared each according to its manufacturer's guideline.
(§3) Minimum inhibitory concentrations (MICs) in μg/ml were determined according to CLSI guideline M7-A7 by broth microdilution. All aerobes were tested using Mueller-Hinton broth medium with the exception of Streptococcus spp., which were tested using cation-adjusted Mueller-Hinton broth supplemented with 2-5% lysed horse blood.

Proteus mirabilis = assay: as above; type: cell-based
Procedure: as §2, §3

Proteus vulgarisi = assay: as above; type: cell-based
Procedure: as §2, §3

Klebsiella oxytoca = assay: as above; type: cell-based
Procedure: as §2, §3

Escherichia coli = assay: as above; type: cell-based
Procedure: as §2, §3

Serratia marcescens = assay: as above; type: cell-based
Procedure: as §2, §3

Morganella morganii = assay: as above; type: cell-based
Procedure: as §2, §3

Acinetobacter spp. = assay: as above; type: cell-based; conditions: 2-3 isolates/organism
Procedure: as §2, §3

Haemophilus influenzae = assay: as above; type: cell-based
Procedure: as §2, §3

Enterobacter cloacae = assay: as above; type: cell-based
Procedure: as §2, §3

Providencia stuartii = assay: as above; type: cell-based
Procedure: as §2, §3

[1] = system: Stenotrophomonas maltophilia; assay: as above; type: cell-based
Procedure: as §2, §3

Citrobacter koseri = assay: as above; type: cell-based
Procedure: as §2, §3

Pseudomonas aeruginosa = assay: as above; type: cell-based; conditions: 2-3 isolates/organism
Procedure: as §2, §3

Citrobacter freundi = assay: as above; type: cell-based
Procedure: as §2, §3

Staph. spp. (coagulase−) = assay: MIC broth microdilution, Gram-positive clinical isolates; type: cell-based
Procedure: as §2, §3

Entero. faecalis = assay: as above; type: cell-based; conditions: Enterococcus faecalis
Procedure: as §2, §3

Strept. pneumoniae = assay: as above; type: cell-based; conditions: Streptococcus pneumoniae
Procedure: as §2, §3

Entero. faecium (VRE) = assay: as above; type: cell-based; conditions: Enterococcus faecium
Procedure: as §2, §3

Strept. pyogenes = assay: as above; type: cell-based; conditions: Streptococcus pyogenes
Procedure: as §2, §3

Strept. agalactiae = assay: as above; type: cell-based; conditions: Streptococcus agalactiae
Procedure: as §2, §3

Staph. aureus (MRSA) = assay: as above; type: cell-based; conditions: Staphylococcus aureus
Procedure: as §2, §3

Staph. spidermidis = assay: as above; type: cell-based
Procedure: as §2, §3

Strept. viridians = assay: as above; type: cell-based
Procedure: as §2, §3

Staph. saprophyticus = assay: as above; type: cell-based; conditions: Staphylococcus saprophyticus
Procedure: as §2, §3

S. aureus = assay: MIC or MIC90 vs S. aureus (selectivity table); type: cell-based; conditions: * marks MIC90
[2] = 2-3 isolates/organism, read-out: MIC
[3] = Proteus vulgarisi, 2-3 isolates/organism, read-out: MIC
[4] = Staph. spidermidis, 2-3 isolates/organism, read-out: MIC

SMILES: CCn1cc(C(=O)O)c(=O)c2cc(F)c(N3CCNCC3)cc21 [norfloxacin, reference compound]
increase in MIC by passage 15 (MSSA ATCC 29213): 128 fold | rise in MIC values by passage 3 (MSSA ATCC 29213): 4 doubling dilutions | increase in MIC by passage 15 (MRSA ATCC 33591): 64 fold | rise in MIC values by passage 3 (MRSA ATCC 33591): 4 doubling dilutions

SMILES: CC(C)(O/N=C(\C(=O)N[C@@H]1C(=O)N2C(C(=O)[O-])=C(C[n+]3ccccc3)CS[C@H]12)c1csc(N)n1)C(=O)O [Ceftazidime]
MIC (Klebsiella pneumoniae; [2]): 0.06 to 0.12 mg/L (≈ 0.11 to 0.22 µM) | MIC (Proteus mirabilis; [2]): 0.03 to 0.06 mg/L (≈ 0.0549 to 0.11 µM) | MIC (Proteus vulgarisi; [3]): 0.12 mg/L (≈ 0.22 µM) | MIC (Klebsiella oxytoca; [2]): 0.06 to 0.12 mg/L (≈ 0.11 to 0.22 µM) | MIC (Escherichia coli; [2]): 0.06 mg/L (≈ 0.11 µM) | MIC (Serratia marcescens; [2]): 0.12 to 0.25 mg/L (≈ 0.22 to 0.457 µM) | MIC (Morganella morganii; [2]): 2 to 16 mg/L (≈ 3.66 to 29.3 µM) | MIC (Acinetobacter spp.): 2 to 64 mg/L (≈ 3.66 to 117 µM) | MIC (Haemophilus influenzae; [2]): 0.06 to 0.12 mg/L (≈ 0.11 to 0.22 µM) | MIC (Enterobacter cloacae; [2]): 0.25 mg/L (≈ 0.457 µM) | MIC (Providencia stuartii; [2]): 0.12 to 0.64 mg/L (≈ 0.22 to 1.17 µM) | MIC [1, 2]: 4 to 8 mg/L (≈ 7.32 to 14.6 µM) | MIC (Citrobacter koseri; [2]): 0.12 to 0.25 mg/L (≈ 0.22 to 0.457 µM) | MIC (Pseudomonas aeruginosa): 1 to 8 mg/L (≈ 1.83 to 14.6 µM) | MIC (Citrobacter freundi; Citrobacter freundi, 2-3 isolates/organism, read-out: MIC): 0.25 to 2 mg/L (≈ 0.457 to 3.66 µM) | MIC (Staph. spp. (coagulase−); Staph. spp. (coagulase−), 2-3 isolates/organism, read-out: MIC): 16 to 32 mg/L (≈ 29.3 to 58.5 µM) | MIC (Entero. faecalis; Entero. faecalis, 2-3 isolates/organism, read-out: MIC): > 64 mg/L | MIC (Strept. pneumoniae; Strept. pneumoniae, 2-3 isolates/organism, read-out: MIC): 0.25 mg/L (≈ 0.457 µM) | MIC (Entero. faecium (VRE); Entero. faecium (VRE), 2-3 isolates/organism, read-out: MIC): > 64 mg/L | MIC (Strept. pyogenes; Strept. pyogenes, 2-3 isolates/organism, read-out: MIC): 0.12 mg/L (≈ 0.22 µM) | MIC (Strept. agalactiae; Strept. agalactiae, 2-3 isolates/organism, read-out: MIC): 0.5 mg/L (≈ 0.915 µM) | MIC (Staph. aureus (MRSA); Staph. aureus (MRSA), 2-3 isolates/organism, read-out: MIC): 32 mg/L (≈ 58.5 µM) | MIC (Staph. spidermidis; [4]): 16 to 32 mg/L (≈ 29.3 to 58.5 µM) | MIC (Strept. viridians; Strept. viridians, 2-3 isolates/organism, read-out: MIC): 0.5 to 4 mg/L (≈ 0.915 to 7.32 µM)

SMILES: CN[C@H](CC(C)C)C(=O)N[C@H]1C(=O)N[C@@H](CC(N)=O)C(=O)N[C@H]2C(=O)N[C@H]3C(=O)N[C@H](C(=O)N[C@H](C(=O)O)c4cc(O)cc(O)c4-c4cc3ccc4O)[C@H](O)c3ccc(c(Cl)c3)Oc3cc2cc(c3O[C@@H]2O[C@H](CO)[C@@H](O)[C@H](O)[C@H]2O[C@H]2C[C@](C)(N)[C@H](O)[C@H](C)O2)Oc2ccc(cc2Cl)[C@H]1O [Vancomycin]
MIC (Klebsiella pneumoniae): > 128 mg/L | MIC (Proteus mirabilis): > 128 mg/L | MIC (Proteus vulgarisi): > 128 mg/L | MIC (Klebsiella oxytoca): > 128 mg/L | MIC (Escherichia coli): > 128 mg/L | MIC (Serratia marcescens): > 128 mg/L | MIC (Morganella morganii): > 128 mg/L | MIC (Haemophilus influenzae): 128 mg/L (≈ 88.3 µM) | MIC (Enterobacter cloacae): > 128 mg/L | MIC (Providencia stuartii): > 128 mg/L | MIC [1]: 32 to 128 mg/L (≈ 22.1 to 88.3 µM) | MIC (Citrobacter koseri): > 128 mg/L | MIC (Citrobacter freundi; Citrobacter): > 128 mg/L | MIC (Staph. spp. (coagulase−)): 1 to 2 mg/L (≈ 0.69 to 1.38 µM) | MIC (Entero. faecalis): 1 mg/L (≈ 0.69 µM) | MIC (Strept. pneumoniae): 0.5 mg/L (≈ 0.345 µM) | MIC (Entero. faecium (VRE); VRE): > 128 mg/L | MIC (Strept. pyogenes): 0.5 mg/L (≈ 0.345 µM) | MIC (Strept. agalactiae): 0.5 mg/L (≈ 0.345 µM) | MIC (Staph. aureus (MRSA); MRSA): 0.5 to 1 mg/L (≈ 0.345 to 0.69 µM) | MIC (Staph. spidermidis): 2 mg/L (≈ 1.38 µM) | MIC (Staph. saprophyticus): 1 to 2 mg/L (≈ 0.69 to 1.38 µM) | MIC (Strept. viridians): 0.5 to 1 mg/L (≈ 0.345 to 0.69 µM)

SMILES: CC[C@H](C)[C@H](NC(=O)CN)C(=O)NCC(=O)N[C@@H](C)C(=O)N[C@H](C(=O)N[C@@H](CC(C)C)C(=O)N[C@@H](CCCCN)C(=O)N[C@H](C(=O)N[C@@H](CC(C)C)C(=O)N[C@H](C(=O)N[C@H](C(=O)NCC(=O)N[C@@H](CC(C)C)C(=O)N1CCC[C@H]1C(=O)N[C@@H](C)C(=O)N[C@@H](CC(C)C)C(=O)N[C@H](C(=O)N[C@@H](CO)C(=O)N[C@@H](Cc1c[nH]c2ccccc12)C(=O)N[C@H](C(=O)N[C@@H](CCCCN)C(=O)N[C@@H](CCCNC(=N)N)C(=O)N[C@@H](CCCCN)C(=O)N[C@@H](CCCNC(=N)N)C(=O)N[C@@H](CCC(N)=O)C(=O)N[C@@H](CCC(N)=O)C(N)=O)[C@@H](C)CC)[C@@H](C)CC)[C@@H](C)O)[C@@H](C)O)C(C)C)C(C)C [melittin, reference compound]
MIC or MIC90* S. aureus (S. aureus): 2 mg/L (≈ 0.703 µM)

MIC (Proteus vulgarisi; [3]): > 16 mg/L | MIC (Klebsiella oxytoca; [2]): > 16 mg/L | MIC (Staph. spidermidis; [4]): 0.5 to 1 mg/L (≈ 1.48 to 2.96 µM)
SMILES: CC(=O)NC[C@H]1CN(c2ccc(N3CCOCC3)c(F)c2)C(=O)O1 [Linezolid]
